Measured values: the supplement of paper PMC7661543
± gives the standard deviation of the averaged measurements.

Tests used:
Assay in all cases: relative cell number vs DMSO control (72 h) (% of DMSO); higher = less growth inhibition (more cells)
Details in all cases: sgRNA knockout: sgNT
ZR-75-1 = test system: ZR-75-1
Method: (§1)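 QMAP-Seq: a pool of 5 breast cancer cell lines (ZR-75-1, SKBR3, HCC-38, MDA-MB-231, BT-20), each carrying 12 doxycycline-inducible Cas9 sgRNA perturbations (11 knockouts plus non-targeting sgNT), was treated with compounds for 72 h at four 10-fold doses (10 nM-10 uM or 1 nM-1 uM range). Barcodes were amplified and sequenced, and cell number was interpolated from 293T spike-in standard curves. The result is expressed as % of the median of DMSO wells. Two biological replicates.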

HCC-38 = test system: HCC-38
Method: as §1

BT-20 = test system: BT-20
Method: as §1

SKBR3 = test system: SKBR3
Method: as §1

MDA-MB-231 = test system: MDA-MB-231
Method: as §1

Row | Structure (SMILES) | relative cell number (ZR-75-1; 10 nM) | relative cell number (ZR-75-1; 100 nM) | relative cell number (ZR-75-1; 1000 nM) | relative cell number (ZR-75-1; 10000 nM) | relative cell number (HCC-38; 10 nM) | relative cell number (HCC-38; 100 nM) | relative cell number (HCC-38; 1000 nM) | relative cell number (HCC-38; 10000 nM) | relative cell number (BT-20; 10 nM) | relative cell number (BT-20; 100 nM) | relative cell number (BT-20; 1000 nM) | relative cell number (BT-20; 10000 nM) | relative cell number (SKBR3; 10 nM) | relative cell number (SKBR3; 100 nM) | relative cell number (SKBR3; 1000 nM) | relative cell number (SKBR3; 10000 nM) | relative cell number (MDA-MB-231; 10 nM) | relative cell number (MDA-MB-231; 100 nM) | relative cell number (MDA-MB-231; 1000 nM) | relative cell number (MDA-MB-231; 10000 nM) | relative cell number (ZR-75-1; 1 nM) | relative cell number (HCC-38; 1 nM) | relative cell number (BT-20; 1 nM) | relative cell number (SKBR3; 1 nM) | relative cell number (MDA-MB-231; 1 nM)
1 | C=CC(=O)Nc1cc2c(Nc3ccc(F)c(Cl)c3)ncnc2cc1OCCCN1CCOCC1 [Canertinib] | 117 ± 23 | 113 ± 22 | 63.6 ± 13 | 41.2 ± 9.9 | 97 ± 19 | 110 ± 9.9 | 87 ± 12 | 9.97 ± 5 | 69.3 ± 4.2 | 59.3 ± 7.5 | 75.3 ± 11 | 41.5 ± 21 | 81.6 ± 12 | 56.6 ± 18 | 39.1 ± 14 | 16.3 ± 0.86 | 87.7 ± 26 | 60.8 ± 6.4 | 78.7 ± 21 | 9.74 ± 5.8 |  |  |  |  | 
2 | CC(C)C[C@H](NC(=O)[C@H](CCc1ccccc1)NC(=O)CN1CCOCC1)C(=O)N[C@@H](Cc1ccccc1)C(=O)N[C@@H](CC(C)C)C(=O)[C@@]1(C)CO1 [Carfilzomib] | 89.9 ± 9.1 | 22.8 ± 13 | 7.73 ± 3.8 |  | 31.4 ± 4.7 | 8.48 ± 4 | 4.65 ± 0.23 |  | 80.32 ± 0.3 | 21.4 ± 4.5 | 14.6 ± 1.8 |  | 33.5 ± 8.4 | 11.2 ± 8.9 | 7.64 ± 5.5 |  | 91 ± 32 | 37.8 ± 22 | 18.7 ± 5.8 |  | 73.3 ± 12 | 76.3 ± 6.3 | 80.9 ± 18 | 58.5 ± 9.1 | 83.2 ± 3.2
3 | COc1cc2c(Oc3ccc4[nH]c(C)cc4c3F)ncnc2cc1OCCCN1CCCC1 [Cediranib] | 113 ± 5.5 | 87.5 ± 7.5 | 86.3 ± 5.5 | 10.9 ± 2.5 | 108 ± 8.3 | 100 ± 1.8 | 59.3 ± 0.64 | 9.73 ± 0.54 | 104 ± 8.7 | 100 ± 29 | 104 ± 9 | 27.9 ± 8.5 | 103 ± 25 | 85.8 ± 14 | 113 ± 29 | 11.1 ± 1.2 | 91.3 ± 3.8 | 114 ± 20 | 104 ± 33 | 15.9 ± 2.8 |  |  |  |  | 
4 | O=C(O)CCCc1ccc(N(CCCl)CCCl)cc1 [Chlorambucil] | 81.3 ± 21 | 83.3 ± 26 | 78 ± 34 | 86.17 ± 0.75 | 90.4 ± 5.5 | 98.6 ± 12 | 96 ± 3.8 | 67.5 ± 2.6 | 100 ± 3 | 72.6 ± 16 | 93.2 ± 18 | 81.2 ± 22 | 107 ± 1.5 | 74.5 ± 4.3 | 82.17 ± 0.55 | 64.2 ± 2.1 | 99.2 ± 7.3 | 94.9 ± 9.4 | 91 ± 18 | 63.5 ± 24 |  |  |  |  | 
5 | Cc1cc(C2CCCCC2)n(O)c(=O)c1 [Ciclopirox] | 112 ± 34 | 93.9 ± 19 | 41.4 ± 1.6 | 18.3 ± 1.6 | 88.3 ± 8.2 | 93.6 ± 11 | 77.4 ± 3.9 | 13.6 ± 2.9 | 96.4 ± 11 | 95.2 ± 19 | 65.7 ± 2.8 | 25.2 ± 7.7 | 105 ± 24 | 83.3 ± 22 | 86.9 ± 17 | 17.3 ± 9.5 | 112 ± 16 | 125 ± 41 | 49.1 ± 5.4 | 20.4 ± 5.6 |  |  |  |  | 
6 | CN/C(=N\CCSCc1nc[nH]c1C)NC#N [Cimetidine] | 103 ± 4.7 | 121 ± 47 | 101 ± 17 | 133 ± 39 | 101 ± 16 | 97.2 ± 9.8 | 88.8 ± 11 | 101 ± 7.5 | 111 ± 2.3 | 108 ± 20 | 100 ± 8.2 | 106 ± 15 | 78.8 ± 35 | 141 ± 62 | 107.1 ± 0.53 | 110 ± 13 | 103 ± 22 | 106 ± 46 | 95.5 ± 9.1 | 92.2 ± 9.2 |  |  |  |  | 
7 | N.N.[Cl][Pt][Cl] [Cisplatin] | 89.8 ± 18 | 88.2 ± 45 | 89.7 ± 35 | 74.5 ± 27 | 114 ± 20 | 79.6 ± 12 | 115 ± 13 | 93.4 ± 8.6 | 100 ± 7.4 | 80.4 ± 4.7 | 111 ± 5.1 | 89 ± 2.7 | 97.5 ± 2.7 | 84.6 ± 5.9 | 81.5 ± 8.8 | 110 ± 3.5 | 95 ± 3.3 | 87.8 ± 8.9 | 99.8 ± 51 | 116 ± 20 |  |  |  |  | 
8 | Nc1nc(Cl)nc2c1ncn2[C@@H]1O[C@H](CO)[C@@H](O)[C@@H]1F [Clofarabine] | 72.7 ± 31 | 63.6 ± 9.1 | 22.1 ± 3.6 | 25.4 ± 15 | 98.6 ± 18 | 25.9 ± 0.79 | 12.6 ± 1.4 | 12.4 ± 6.4 | 103 ± 44 | 73.9 ± 4.4 | 27 ± 2.8 | 26.5 ± 1.5 | 65.5 ± 37 | 45.5 ± 1.9 | 10.2 ± 1.7 | 8.24 ± 1.4 | 82.8 ± 26 | 30 ± 7.7 | 12 ± 1.1 | 22.7 ± 0.75 |  |  |  |  | 
9 | C[C@@H](Oc1cc(-c2cnn(C3CCNCC3)c2)cnc1N)c1c(Cl)ccc(F)c1Cl [Crizotinib] | 75.6 ± 19 | 116 ± 13 | 34.1 ± 13 | 14.6 ± 0.35 | 91.2 ± 15 | 85.708 ± 0.047 | 86.8 ± 2.8 | 25.9 ± 4.9 | 83.9 ± 22 | 100.3 ± 0.25 | 75.5 ± 12 | 44.2 ± 4.7 | 92.7 ± 20 | 98.4 ± 12 | 88.6 ± 8.4 | 37.4 ± 27 | 89.5 ± 29 | 88.8 ± 15 | 54 ± 14 | 8.63 ± 0.23 |  |  |  |  | 
10 | COc1cc(/C=C/C(=O)CC(=O)/C=C/c2ccc(O)c(OC)c2)ccc1O [Curcumin] | 73.8 ± 1.7 | 84.5 ± 52 | 112 ± 46 | 72.5 ± 0.98 | 100 ± 14 | 97.5 ± 7 | 95.5 ± 7.2 | 85.5 ± 21 | 116 ± 7.8 | 107 ± 32 | 95.9 ± 6.5 | 95.3 ± 16 | 106 ± 29 | 82.86 ± 0.028 | 111 ± 7.2 | 66.7 ± 0.98 | 91.8 ± 29 | 136 ± 59 | 88.6 ± 8.1 | 61.55 ± 0.48 |  |  |  |  | 
